Data: PMC7818921, “Synthesis and biological evaluation of heterocyclic 1,2,4-triazole scaffolds as promising pharmacological agents” (BMC Chemistry, 2021)
Values after ≈ are worked out from the molar mass of the structure shown. Values joined by “and” are separate entries in the source; they are usually repeats but may differ in a detail not shown here. Equal entries are not always repeated.

Test system: Candida albicans
Assay: In vitro antifungal screening, tube dilution method
Type: cell-based
Conditions: C. albican; Sabouraud dextrose broth, 37 ± 1 °C, 48 h; read-out: Minimum inhibitory concentration
Experimental: (§1) The in vitro antimicrobial screening of the synthesized 1,2,4-triazole derivatives (T1–T20) in μM was determined against Gram-positive Bacillus subtilis, […], Gram-negative Escherichia coli bacterium and fungal strains Candida albicans and Aspergillus niger by tube dilution method using ciprofloxacin, amoxycillin (antibacterial) and fluconazole (antifungal) as reference drugs. DMSO was used to dissolve the reference and sample derivatives (T1–T20). Dilutions were prepared in nutrient broth (I.P.) for bacterial (incubated at 37 ± 1 °C for 24 h) and Sabouraud dextrose broth (I.P.) for fungal species (37 ± 1 °C for 48 h for C. albicans) and (25 ± 1 °C for 7 days for A. niger) (Table 3, Figs. 4 and 5).

With CCCCCCCCCCCCCCCc1nnc(S)n1N=Cc1c(O)ccc2ccccc12 [Compound T18] the MIC was 208 µM and 208.0 µM.

Work on CCCCCCCCCCCCCCCc1nnc(S)n1N=Cc1ccco1 [Compound T20] yielded an MIC of 247.1 µM (≈ 100 µg/mL).

Test system: Aspergillus niger
Assay: as above
Type: cell-based
Conditions: A. niger; Sabouraud dextrose broth, 25 ± 1 °C, 7 days; read-out: Minimum inhibitory concentration
Experimental: as §1

For CCCCCCCCCCCCCCCc1nnc(S)n1N=Cc1c(O)ccc2ccccc12 [Compound T18], the MIC was 104 µM and 104.0 µM.

Compound CCCCCCCCCCCCCCCc1nnc(S)n1N=Cc1ccco1 [Compound T20] has an MIC of 247.1 µM (≈ 100 µg/mL).

Target: Jack Bean Urease (Canavalia ensiformis, UniProt P07374)
Sequence (P07374 whole entry, looked up): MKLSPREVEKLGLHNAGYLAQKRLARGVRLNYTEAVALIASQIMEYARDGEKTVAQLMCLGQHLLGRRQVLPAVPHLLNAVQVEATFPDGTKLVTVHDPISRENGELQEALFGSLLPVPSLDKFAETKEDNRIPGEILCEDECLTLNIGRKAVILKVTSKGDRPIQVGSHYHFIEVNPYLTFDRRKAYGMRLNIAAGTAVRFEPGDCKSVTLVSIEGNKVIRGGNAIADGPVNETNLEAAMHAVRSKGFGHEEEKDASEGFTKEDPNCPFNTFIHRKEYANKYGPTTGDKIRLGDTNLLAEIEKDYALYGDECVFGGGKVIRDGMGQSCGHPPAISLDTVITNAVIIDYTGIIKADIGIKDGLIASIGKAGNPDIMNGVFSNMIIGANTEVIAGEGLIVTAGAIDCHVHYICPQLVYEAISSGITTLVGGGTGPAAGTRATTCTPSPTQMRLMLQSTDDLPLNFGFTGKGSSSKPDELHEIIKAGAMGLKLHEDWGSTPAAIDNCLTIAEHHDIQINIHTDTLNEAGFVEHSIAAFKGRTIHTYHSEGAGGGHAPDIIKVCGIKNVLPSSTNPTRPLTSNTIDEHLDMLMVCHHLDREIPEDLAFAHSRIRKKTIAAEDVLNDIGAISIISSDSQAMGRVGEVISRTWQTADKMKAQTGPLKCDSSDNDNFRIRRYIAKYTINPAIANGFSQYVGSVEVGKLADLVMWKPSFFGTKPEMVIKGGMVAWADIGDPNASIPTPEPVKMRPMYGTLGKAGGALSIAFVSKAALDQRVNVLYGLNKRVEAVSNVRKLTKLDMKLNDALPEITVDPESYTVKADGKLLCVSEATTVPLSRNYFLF
Assay: biochemical
Conditions: urease inhibition
Experimental: Urease inhibitory potential for each synthesisized compound (T1–T20) was evaluated using Jack Bean Urease by Indophenol method (Table 5, Figs. 9, 10, 11). 250 µl of jack bean urease (4U) was mixed with 250 µl of different synthesized test compounds and standard of different concentrations [dissolved in DMSO/H2O mixture (1:1 v/v)]. The mixture was pre-incubated for 1 h at 37 °C in test tubes. 2 ml of 100 mM phosphate buffer (pH 6.8) containing 500 mM urea and 0.002% phenol red as an indicator were added in sample test tubes after pre incubation and again incubated at room temperature. Absorbance of reaction mixture was recorded by ELISA at 570 nm. Ammonium carbonate increased the pH of phosphate buffer from 6.8 to 7.7 which was produced from urea by urease enzyme and the end peak was measured by the colour of phenol red indicator [16].
The percentage inhibition of urease enzyme was calculated by using following formula: I%=Acontrol-Asample/Acontrol×100,
where Acontrol is the absorbance of the control; Asample is the absorbance of the test compound.

In order of rising IC50:
1. CCCCCCCCCCCCCCCc1nnc(S)n1N=Cc1ccco1 [Compound T20]  52.34 µg/mL (≈ 129 µM)
2. CCCCCCCCCCCCCCCc1nnc(S)n1N=Cc1c(O)ccc2ccccc12 [Compound T18]  54.30 µg/mL (≈ 113 µM)

Same assay, conditions: urease, 25 µg/ml

In order of falling “% inhibition” value:
1. CCCCCCCCCCCCCCCc1nnc(S)n1N=Cc1c(O)ccc2ccccc12 [Compound T18]  40.90%
2. CCCCCCCCCCCCCCCc1nnc(S)n1N=Cc1ccco1 [Compound T20]  28.98%

Same assay, conditions: urease, 50 µg/ml

In order of falling “% inhibition” value:
1. CCCCCCCCCCCCCCCc1nnc(S)n1N=Cc1ccco1 [Compound T20]  49.09%
2. CCCCCCCCCCCCCCCc1nnc(S)n1N=Cc1c(O)ccc2ccccc12 [Compound T18]  46.79%

Same assay, conditions: urease, 75 µg/ml

In order of rising “% inhibition” value:
1. CCCCCCCCCCCCCCCc1nnc(S)n1N=Cc1c(O)ccc2ccccc12 [Compound T18]  55.89%
2. CCCCCCCCCCCCCCCc1nnc(S)n1N=Cc1ccco1 [Compound T20]  69.09%

Same assay, conditions: urease, 100 µg/ml

In order of rising “% inhibition” value:
1. CCCCCCCCCCCCCCCc1nnc(S)n1N=Cc1c(O)ccc2ccccc12 [Compound T18]  67.9%
2. CCCCCCCCCCCCCCCc1nnc(S)n1N=Cc1ccco1 [Compound T20]  81.90%

Test system: HCT116 (human colon cancer cells)
Assay: Anticancer evaluation, SRB assay
Type: cell-based
Conditions: HCT116, 72 h, SRB; mean of at least triplicates
Experimental: HCT116 (human colon cancer cells) were seeded at 2500 cells/well (96 well plate), allowed to attach overnight, exposed to the respective compounds for 72 h and subjected to SRB assay (570 nm). Data represent mean IC50 of at least triplicates. The compounds were all dissolved in DMSO as stock of 100 mg/ml. […] The highest concentration of each compound tested (100 μg/ml) contained only 0.1% DMSO.

CCCCCCCCCCCCCCCc1nnc(S)n1N=Cc1c(O)ccc2ccccc12 [Compound T18] and CCCCCCCCCCCCCCCc1nnc(S)n1N=Cc1ccco1 [Compound T20] cannot be ordered by IC50: > 208 µM for the first, > 247 µM for the second.

Test system: not listed separately
Assay: DPPH free radical scavenging activity
Conditions: DPPH antioxidant
Experimental: In the DPPH free radical scavenging activity, compounds (T1–T20) were evaluated for their free radical scavenging activity with ascorbic acid as standard compound. The scavenging effect increased with the increasing concentrations of sample compounds. DPPH is relatively stable nitrogen centered free radical that easily accepts an electron or hydrogen radical to become a stable diamagnetic molecule. DPPH radicals react with suitable reducing agents as a result of which the electrons become paired off forming the corresponding hydrazine. The solution therefore loses colour stoichometrically depending on the number of electrons taken up. […] The sample solutions were incubated for 30 min at room temperature in dark place and after then absorbance was recorded against the blank solution at 517 nm. The relative percent of DPPH scavenging activity was calculated according to the following equation: I%=Acontrol-Asample/Acontrol×100,
where Acontrol is the absorbance of the control, Asample is the absorbance of the test compound.

CCCCCCCCCCCCCCCc1nnc(S)n1N=Cc1ccco1 [Compound T20] gave an IC50 of 46.34 µg/mL (≈ 115 µM).

Same assay, conditions: DPPH, 25 µg/ml

In order of falling “% inhibition” value:
1. CCCCCCCCCCCCCCCc1nnc(S)n1N=Cc1c(O)ccc2ccccc12 [Compound T18]  39.59%
2. CCCCCCCCCCCCCCCc1nnc(S)n1N=Cc1ccco1 [Compound T20]  33.45%

Same assay, conditions: DPPH, 50 µg/ml

In order of rising “% inhibition” value:
1. CCCCCCCCCCCCCCCc1nnc(S)n1N=Cc1ccco1 [Compound T20]  53.67%
2. CCCCCCCCCCCCCCCc1nnc(S)n1N=Cc1c(O)ccc2ccccc12 [Compound T18]  68.57%

Same assay, conditions: DPPH, 75 µg/ml

In order of falling “% inhibition” value:
1. CCCCCCCCCCCCCCCc1nnc(S)n1N=Cc1c(O)ccc2ccccc12 [Compound T18]  80.13%
2. CCCCCCCCCCCCCCCc1nnc(S)n1N=Cc1ccco1 [Compound T20]  70.46%

Same assay, conditions: DPPH, 100 µg/ml

In order of rising “% inhibition” value:
1. CCCCCCCCCCCCCCCc1nnc(S)n1N=Cc1ccco1 [Compound T20]  92.67%
2. CCCCCCCCCCCCCCCc1nnc(S)n1N=Cc1c(O)ccc2ccccc12 [Compound T18]  95.89%

Test system: Pseudomonas aeruginosa
Assay: In vitro antimicrobial screening, tube dilution method
Type: cell-based
Conditions: P. aeruginosa, Gram −ve; nutrient broth, 37 ± 1 °C, 24 h; read-out: Minimum inhibitory concentration
Experimental: as §1

In order of falling MIC:
1. CCCCCCCCCCCCCCCc1nnc(S)n1N=Cc1ccco1 [Compound T20]  123.5 µM (≈ 50 µg/mL)
2. CCCCCCCCCCCCCCCc1nnc(S)n1N=Cc1c(O)ccc2ccccc12 [Compound T18]  52.0 µM (≈ 25 µg/mL)

Test system: Escherichia coli
Assay: as above
Type: cell-based
Conditions: E. coli, Gram −ve; nutrient broth, 37 ± 1 °C, 24 h; read-out: Minimum inhibitory concentration
Experimental: as §1

In order of falling MIC:
1. CCCCCCCCCCCCCCCc1nnc(S)n1N=Cc1c(O)ccc2ccccc12 [Compound T18]  104.0 µM (≈ 50 µg/mL)
2. CCCCCCCCCCCCCCCc1nnc(S)n1N=Cc1ccco1 [Compound T20]  61.7 µM (≈ 25 µg/mL)

Test system: Bacillus subtilis
Assay: as above
Type: cell-based
Conditions: B. substilis, Gram +ve; nutrient broth, 37 ± 1 °C, 24 h; read-out: Minimum inhibitory concentration
Experimental: as §1

In order of falling MIC:
1. CCCCCCCCCCCCCCCc1nnc(S)n1N=Cc1c(O)ccc2ccccc12 [Compound T18]  104.0 µM (≈ 50 µg/mL)
2. CCCCCCCCCCCCCCCc1nnc(S)n1N=Cc1ccco1 [Compound T20]  61.7 µM (≈ 25 µg/mL)
